Patent publication US11617369B2, “Antimicrobial gallium compounds and methods” (The Board of Supervisors of Louisiana State University and …, priority 2018, dated 2023)
Entries after “also recorded” stand apart in the source; their conditions may differ.

Assays:
[1] = cited from earlier work
[2] = Stability of aqueous gallium complex solutions with pH; type: physicochemical; settings: solution of 2×10^−3 M
[3] = system: Streptococcus pneuomoniae; assay: Antibacterial activity by optical density of cultures with serial dilution of the compounds; type: cell-based; settings: pH 5.9, 18 hours
Protocol: (§1) The antibacterial activities of three complexes against six oral bacteria at pH 5.9 were tested by measuring the optical density (OD, at 600 nm) of the cultures in […] of different bacteria with the presence of serial dilution of the compounds (10^−2M-7.81×10^−5M) after culture at 5% CO2 under 37° C. for 18 hours. The midpoint concentration (IC 50) was determined at the concentration that corresponds to 50% of maximum OD. The minimum inhibition concentration (MIC) was determined at the concentration that corresponds to 10% or less of OD of the control (without any gallium compound).

Pseudomonas aeruginosa = assay: as above; type: cell-based; settings: pH 5.9, 18 hours
Protocol: as §1

Actinomyces naeslundii = assay: as above; type: cell-based; settings: pH 5.9, 18 hours
Protocol: as §1

Lactobacillus casei = assay: as above; type: cell-based; settings: pH 5.9, 18 hours
Protocol: as §1

Streptococcus mutans = assay: as above; type: cell-based; settings: pH 5.9, 18 hours
Protocol: as §1

Streptococcus sobrinus = assay: as above; type: cell-based; settings: pH 5.9, 18 hours
Protocol: as §1

[4] = Gallium release from composite discs, spectrophotometric method; settings: 15% chelate in the monomer; deionized water pH=7.0; 4 days (FIG. 13)
[5] = 37° C., 5% CO2, OD at 600 nm, read-out: Midpoint concentration (IC50)
[6] = 10% or less of OD of the control

[Ga+3].[Ga+3].[O-2].[O-2].[O-2] [Ga2O3, gallium oxide]
solubility in water (words) [1]: insoluble in water

[Ga+3].[OH-].[OH-].[OH-] [Ga(OH)3]
solubility in water (words) [1]: sparingly soluble; also recorded: low solubility in water | Ksp=[Ga^3+][OH^−]^3 ([1]; in water): 3.28×10^−36

[F][Ga]([F])[F] [GaF3, gallium trifluoride]
solubility in water [1]: 15.8 µM | solubility in water (words) [1]: sparingly soluble

[F][Ga-2]([F])([F])([F])[F].[Na+].[Na+] [Na2GaF5]
pH up to which the solution is stable [2]: ≤ 5.9 | IC50 [3, 5]: 1880 µM | Minimum Inhibition Concentration (MIC) [3, 6]: 5000 µM | IC50 (Pseudomonas aeruginosa; [5]): > 1880 µM | Minimum Inhibition Concentration (MIC) (Pseudomonas aeruginosa; [6]): 50 µM | IC50 (Actinomyces naeslundii; [5]): 1880 µM | Minimum Inhibition Concentration (MIC) (Actinomyces naeslundii; [6]): 2500 µM | IC50 (Lactobacillus casei; [5]): > 5000 µM | Minimum Inhibition Concentration (MIC) (Lactobacillus casei; [6]): >10^−2M | IC50 (Streptococcus mutans; [5]): 1250 µM | Minimum Inhibition Concentration (MIC) (Streptococcus mutans; [6]): 2500 µM | IC50 (Streptococcus sobrinus; [5]): 1250 µM | Minimum Inhibition Concentration (MIC) (Streptococcus sobrinus; [6]): 5000 µM

C=C(C)C(=O)OCCOc1ccc(C(C)(CCC(=O)NCCCCC(C(=O)[O-])N(CC(=O)[O-])CC(=O)O)c2ccc(OCCOC(=O)C(=C)C)cc2)cc1.F.[F-].[Ga+3] (stereo not shown) [ternary gallium fluoride chelate, monogallium(III) mono(2,2′-((5-(4,4-bis(4-(2-(methacryloyloxy)ethoxy)phenyl)pentanamido)-1-carboxylatopentyl)azanediyl)diacetate) monofluoride hydrofluoride]
amount of gallium ion released compared with those without the chelate [4]: nearly double
